{
  "source": "paper PMC11662536",
  "about": "“Targeting SARS-CoV-2 main protease: a comprehensive approach using advanced virtual screening, molecular dynamics, and in vitro validation” (Virology Journal, 2024)",
  "note": "“And” between values parts separate entries of the source, which are not always exact repeats. Equal entries are not always repeated.",
  "data": [
    {"biological_target": "SARS-CoV-2_WT Mpro (Severe acute respiratory syndrome coronavirus 2, UniProt P0DTD1)", "assay": "biochemical", "details": "25 nM SARS-2 Mpro, 25 μM substrate, 30 min pre-incubation", "values": [
      {"smiles": "Oc1ccc2c(c1)oc1c(-c3ccc(O)c(O)c3)c3c(O)nn(C4CCCCC4)c3nc12", "note": "[ID11, Oc1ccc2c(c1)oc1c(-c3ccc(O)c(O)c3)c3c(O)nn(C4CCCCC4)c3nc12]", "IC50": "< 100 µM and 54.4 µM"},
      {"smiles": "Oc1ccc(-c2c3oc4c(O)c(O)ccc4c3nc3c2c(O)nn3C2CCCCCC2)cc1O", "note": "[ID14, Oc1ccc(-c2c3oc4c(O)c(O)ccc4c3nc3c2c(O)nn3C2CCCCCC2)cc1O]", "IC50": "< 100 µM"},
      {"smiles": "Oc1ccc(-c2c3oc4cc(O)ccc4c3nc3c2c(O)nn3C2CCCCCC2)cc1", "note": "[ID18, Oc1ccc(-c2c3oc4cc(O)ccc4c3nc3c2c(O)nn3C2CCCCCC2)cc1]", "IC50": "< 100 µM"},
      {"smiles": "Cc1c(O)ccc2c1oc1c(-c3ccc(O)c(O)c3)c3c(O)nn(C4CCCCC4)c3nc12", "note": "[ID20, Cc1c(O)ccc2c1oc1c(-c3ccc(O)c(O)c3)c3c(O)nn(C4CCCCC4)c3nc12]", "IC50": "< 100 µM"},
      {"smiles": "COc1cc(-c2c3oc4cc(O)ccc4c3nc3c2c(O)nn3C2CCCCC2)cc(O)c1O", "note": "[ID32, COc1cc(-c2c3oc4cc(O)ccc4c3nc3c2c(O)nn3C2CCCCC2)cc(O)c1O]", "IC50": "< 100 µM"},
      {"smiles": "Oc1ccc(-c2c3oc4c(O)c(O)ccc4c3nc3c2c(O)nn3C2CCCCC2)cc1Cl", "note": "[ID35, Oc1ccc(-c2c3oc4c(O)c(O)ccc4c3nc3c2c(O)nn3C2CCCCC2)cc1Cl]", "IC50": "< 100 µM and 59.4 µM"},
      {"smiles": "COc1cc(-c2c3oc4cc(O)ccc4c3nc3c2c(O)nn3C2CCCCCCC2)cc(O)c1O", "note": "[ID41, COc1cc(-c2c3oc4cc(O)ccc4c3nc3c2c(O)nn3C2CCCCCCC2)cc(O)c1O]", "IC50": "< 100 µM"}
    ]}
  ]
}
